For orientation: ED50 means the dose at which the effect has come halfway, by size or by number of responders.

From US9994547B2, “Heteroarylamide inhibitors of TBK1” (Takeda Pharmaceutical Company Limited, priority 2014, dated 2018) come the findings set out here.

The first assay deals with C57/BL6 mice. As to the kind of experiment: Inhibition of ConA Induced Hepatitis (Example B). Type of assay: in vivo. The settings on record: Mus musculus; oral, 1 hr before ConA 15 mg/kg i.v.; plasma ALT post 8-24 hrs; read-out: ED50 (amount of test compound that reduces ConA induced increase in plasma ALT level by 50%). The protocol:
Orally administer compound into normal C57/BL6 mice at several doses. After 1 hr, inject i.v. with ConA 15 mg/kg, (N=5). Post 8-24 hrs, collect plasma and liver. Measure plasma ALT enzyme level. An ED50 is determined as the amount of test compound that reduces ConA induced increase in plasma ALT level by 50%.
Take `C[C@H](Nc1cc(-c2cnc(NC(=O)C3CC3)cn2)ccc1C#N)C(=O)N(C)C` [Example 1, (S)-N-(5-(4-cyano-3-((1-(dimethylamino)-1-oxopropan-2-yl)amino)phenyl)pyrazin-2-yl)cyclopropanecarboxamide]: the ED50 amounted to 5 mg/kg.

The target of the next assay is Full length human TBK1 (Homo sapiens (Human), UniProt Q9UHD2). Briefly: Inhibition of TBK1 Enzyme (Example A). The settings on record: -log(IC50), IC50 molar; 3 nM TBK1, 25 μM ATP, 60 min RT. Type of assay: biochemical. The essentials: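 Full-length N-His human TBK1 from Sf9 baculovirus was tested with 11-point 2.5-fold dilutions (1% DMSO) in Hepes pH 7.4, MgCl2, EDTA, Brij, DTT. After 60 min RT and EDTA quench, microfluidic conversion was fitted and reported as pIC50.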
Sequence of Full length human TBK1 (Q9UHD2 whole entry): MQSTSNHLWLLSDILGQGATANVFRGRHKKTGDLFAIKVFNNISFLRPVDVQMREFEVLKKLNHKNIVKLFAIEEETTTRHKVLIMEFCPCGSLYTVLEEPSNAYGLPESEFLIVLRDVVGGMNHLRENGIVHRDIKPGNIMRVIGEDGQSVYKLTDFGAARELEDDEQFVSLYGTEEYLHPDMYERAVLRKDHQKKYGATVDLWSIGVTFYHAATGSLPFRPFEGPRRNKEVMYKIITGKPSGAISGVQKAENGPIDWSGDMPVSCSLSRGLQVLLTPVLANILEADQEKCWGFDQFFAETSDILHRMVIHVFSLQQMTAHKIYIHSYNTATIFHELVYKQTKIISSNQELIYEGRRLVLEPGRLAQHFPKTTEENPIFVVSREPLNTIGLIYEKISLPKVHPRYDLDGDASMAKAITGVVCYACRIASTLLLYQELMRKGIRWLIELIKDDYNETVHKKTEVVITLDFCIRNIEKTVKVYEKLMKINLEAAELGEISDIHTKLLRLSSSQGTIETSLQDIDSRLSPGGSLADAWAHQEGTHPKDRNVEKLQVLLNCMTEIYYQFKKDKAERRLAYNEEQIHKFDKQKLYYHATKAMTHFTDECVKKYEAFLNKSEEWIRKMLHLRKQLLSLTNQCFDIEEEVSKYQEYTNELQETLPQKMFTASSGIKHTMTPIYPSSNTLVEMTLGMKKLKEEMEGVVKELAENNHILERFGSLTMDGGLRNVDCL
As for `C[C@H](Nc1cc(-c2cnc(NC(=O)C3CC3)cn2)ccc1C#N)C(=O)N(C)C` [Example 1, (S)-N-(5-(4-cyano-3-((1-(dimethylamino)-1-oxopropan-2-yl)amino)phenyl)pyrazin-2-yl)cyclopropanecarboxamide], the “TBK1 Inhibition (pIC50)” value came out at 8.1. For the molecule `CN(C)C(=O)CNc1cc(-c2cnc(NC(=O)C3CC3)cn2)ccc1C#N` [Example 123, N-(5-(4-cyano-3-((2-(dimethylamino)-2-oxoethyl)amino)phenyl)pyrazin-2-yl)cyclopropanecarboxamide], the “TBK1 Inhibition (pIC50)” value worked out at 7.2.

With `CCNC(=O)CNc1cc(-c2cnc(NC(=O)C3CC3)cn2)ccc1C#N` [Example 124, N-(5-(4-cyano-3-((2-(ethylamino)-2-oxoethyl)amino)phenyl)pyrazin-2-yl)cyclopropanecarboxamide], the “TBK1 Inhibition (pIC50)” value was 6.5.

Consider `N#Cc1ccc(-c2cnc(NC(=O)C3CC3)cn2)cc1NCC(=O)N1CCCC1` [Example 125, N-(5-(4-cyano-3-((2-oxo-2-(pyrrolidin-1-yl)ethyl)amino)phenyl)pyrazin-2-yl)cyclopropanecarboxamide], for which the “TBK1 Inhibition (pIC50)” value is 7.3. Same read-out and setting: with `CN(CC(F)(F)F)C(=O)CNc1cc(-c2cnc(NC(=O)C3CC3)cn2)ccc1C#N` [Example 126, N-(5-(4-cyano-3-((2-(methyl(2,2,2-trifluoroethyl)amino)-2-oxoethyl)amino)phenyl)pyrazin-2-yl)cyclopropanecarboxamide] the figure was 7.6. For the molecule `CC[C@H](Nc1cc(-c2cnc(NC(=O)C3CC3)cn2)ncc1C#N)C(=O)N(C)C` [Example 127, (S)-N-(5-(5-cyano-4-((1-(dimethylamino)-1-oxobutan-2-yl)amino)pyridin-2-yl)pyrazin-2-yl)cyclopropanecarboxamide], the “TBK1 Inhibition (pIC50)” value turned out to be 7.0.

Consider `CN(C)C(=O)C(CO)Nc1cc(-c2cnc(NC(=O)C3CC3)cn2)cnc1C#N` [Example 128, (S)-N-(5-(6-cyano-5-((1-(dimethylamino)-3-hydroxy-1-oxopropan-2-yl)amino)pyridin-3-yl)pyrazin-2-yl)cyclopropanecarboxamide], for which the “TBK1 Inhibition (pIC50)” value worked out at 7.1. For `C[C@H](Nc1cc(-c2cnc(NC(=O)C3CC3)cn2)cnc1C#N)C(=O)N(C)C` [Example 129, (S)-N-(5-(6-cyano-5-((1-(dimethylamino)-1-oxopropan-2-yl)amino)pyridin-3-yl)pyrazin-2-yl)cyclopropanecarboxamide], the “TBK1 Inhibition (pIC50)” value was found to be 7.6. The same measure, in the same setting: with `COCC[C@H](Nc1cc(-c2cnc(NC(=O)C3CC3)cn2)cnc1C#N)C(=O)N(C)C` [Example 131, (S)-N-(5-(6-cyano-5-((1-(dimethylamino)-4-methoxy-1-oxobutan-2-yl)amino)pyridin-3-yl)pyrazin-2-yl)cyclopropanecarboxamide] the figure was 7.1; with `CC1(O)CCN(C(=O)CNc2cc(-c3cnc(NC(=O)C4CC4)cn3)ccc2C#N)C1` (stereo not drawn) [Example 132, N-(5-(4-cyano-3-((2-(3-hydroxy-3-methylpyrrolidin-1-yl)-2-oxoethyl)amino)phenyl)pyrazin-2-yl)cyclopropanecarboxamide], 6.2. Same read-out and setting: as for `CC(CO)N(C)C(=O)CNc1cc(-c2cnc(NC(=O)C3CC3)cn2)ccc1C#N` (stereo not drawn) [Example 133, N-(5-(4-cyano-3-((2-((1-hydroxypropan-2-yl)(methyl)amino)-2-oxoethyl)amino)phenyl)pyrazin-2-yl)cyclopropanecarboxamide], the figure is 7.3; as for `CC(O)CN(C)C(=O)CNc1cc(-c2cnc(NC(=O)C3CC3)cn2)ccc1C#N` (stereo not drawn) [Example 134, N-(5-(4-cyano-3-((2-((2-hydroxypropyl)(methyl)amino)-2-oxoethyl)amino)phenyl)pyrazin-2-yl)cyclopropanecarboxamide], 6.9.

With `CN(C)C(=O)[C@H](CO)Nc1cc(-c2cnc(NC(=O)C3CC3)cn2)ccc1C#N` [Example 136, (S)-N-(5-(4-cyano-3-((1-(dimethylamino)-3-hydroxy-1-oxopropan-2-yl)amino)phenyl)pyrazin-2-yl)cyclopropanecarboxamide], the “TBK1 Inhibition (pIC50)” value was found to be 7.6. Turning to `C[C@H](Nc1cc(-c2cnc(NC(=O)C3CC3)cn2)cc(F)c1C#N)C(=O)N(C)C` [Example 137, (S)-N-(5-(4-cyano-3-((1-(dimethylamino)-1-oxopropan-2-yl)amino)-5-fluorophenyl)pyrazin-2-yl)cyclopropanecarboxamide], the “TBK1 Inhibition (pIC50)” value was 7.6. With `CN(C)C(=O)C(CC(F)(F)F)Nc1cc(-c2cnc(NC(=O)C3CC3)cn2)cnc1C#N` (stereo not drawn) [Example 138, N-(5-(6-cyano-5-((1-(dimethylamino)-4,4,4-trifluoro-1-oxobutan-2-yl)amino)pyridin-3-yl)pyrazin-2-yl)cyclopropanecarboxamide], the “TBK1 Inhibition (pIC50)” value turned out to be 6.2. For the molecule `C[C@H](Nc1cc(-c2cnc(NC(=O)C3CC3)cn2)cnc1C#N)C(=O)N1CC[C@H](F)C1` [Example 139, N-(5-(6-cyano-5-(((S)-1-((S)-3-fluoropyrrolidin-1-yl)-1-oxopropan-2-yl)amino)pyridin-3-yl)pyrazin-2-yl)cyclopropanecarboxamide], the “TBK1 Inhibition (pIC50)” value turned out to be 7.7. Regarding `N#Cc1ncc(-c2cnc(NC(=O)C3CC3)cn2)cc1NCC(=O)N1CCS(=O)(=O)C1` [Example 140, N-(5-(6-cyano-5-((2-(1,1-dioxidothiazolidin-3-yl)-2-oxoethyl)amino)pyridin-3-yl)pyrazin-2-yl)cyclopropanecarboxamide], the “TBK1 Inhibition (pIC50)” value is reported as 7.0. With `N#Cc1ncc(-c2cnc(NC(=O)C3CC3)cn2)cc1NCC(=O)N1CCC[C@@H]1C(F)F` [Example 141, (R)-N-(5-(6-cyano-5-((2-(2-(difluoromethyl)pyrrolidin-1-yl)-2-oxoethyl)amino)pyridin-3-yl)pyrazin-2-yl)cyclopropanecarboxamide], the “TBK1 Inhibition (pIC50)” value was determined as 8.3.

For `N#Cc1ncc(-c2cnc(NC(=O)C3CC3)cn2)cc1NCC(=O)N1CCCC1CF` (stereo not drawn) [Example 143, N-(5-(6-cyano-5-((2-(2-(fluoromethyl)pyrrolidin-1-yl)-2-oxoethyl)amino)pyridin-3-yl)pyrazin-2-yl)cyclopropanecarboxamide], the “TBK1 Inhibition (pIC50)” value is 7.0. For the molecule `CC1CC1C(=O)Nc1cnc(-c2cnc(C#N)c(NCC(N)=O)c2)cn1` (stereo not drawn) [Example 144, N-(5-(5-((2-amino-2-oxoethyl)amino)-6-cyanopyridin-3-yl)pyrazin-2-yl)-2-methylcyclopropanecarboxamide], the “TBK1 Inhibition (pIC50)” value is listed as 5.6. Regarding `CC1CC1C(=O)Nc1cnc(-c2cnc(C#N)c(NCC(=O)N(C)C)c2)cn1` (stereo not drawn) [Example 145, N-(5-(6-cyano-5-((2-(dimethylamino)-2-oxoethyl)amino)pyridin-3-yl)pyrazin-2-yl)-2-methylcyclopropanecarboxamide], the “TBK1 Inhibition (pIC50)” value is recorded as 7.1.

For the molecule `C[C@H](Nc1cc(-c2cnc(NC(=O)C3CC3CO)cn2)cnc1C#N)C(=O)N(C)CC(F)F` (stereo partly drawn) [Example 146, N-(5-(6-cyano-5-(((S)-1-((2,2-difluoroethyl)(methyl)amino)-1-oxopropan-2-yl)amino)pyridin-3-yl)pyrazin-2-yl)-2-(hydroxymethyl)cyclopropanecarboxamide], the “TBK1 Inhibition (pIC50)” value amounted to 8.1.

Still in this assay, the particulars now being: -log(IC50), IC50 molar; 3 nM TBK1, 25 μM ATP, 60 min RT; read-out: TBK1 Inhibition (pIC50) (converted).
`CC[C@H](Nc1cc(-c2cnc(NC(=O)C3CC(C)(O)C3)cn2)cnc1C#N)C(=O)N(C)C` (stereo partly drawn) [Example 147, (S)-N-(5-(6-cyano-5-((1-(dimethylamino)-1-oxobutan-2-yl)amino)pyridin-3-yl)pyrazin-2-yl)-3-hydroxy-3-methylcyclobutanecarboxamide]: the IC50 is 398 nM.
